Measured values taken from US20070049635A1 (priority 2003, published 2007).
Like-named read-outs stand apart in the source and are kept apart here.

Assays:
[1] = system: Pyricularia oryzae; type: in vivo; conditions: wettable powder diluted to 200 ppm sprayed on rice pots (Koshihikari, 2-leaf stage); spore spray-inoculation; examined after 7 days
[2] = system: Pyricularia oryzae; type: in vivo; conditions: granules applied to water surface at 1.5 kg/10 ares; rice Koshihikari; inoculated 30 days after application; lesions examined after 1 week

Row | Compound | Effect (preventive value) [1] | Effect (preventive value) [2]
1 | CCC(CC)C(CNC(=O)c1ccc(C)cc1)NC(=O)OCC(F)(F)F (stereo not shown) [compound 39] | A (80% or more) | –
2 | Cc1ccc(C(=O)NCC(NC(=O)OCCC(F)(F)C(F)(F)C(F)(F)C(F)(F)F)C(C)C)cc1 (stereo not shown) [compound 14] | B (50% or more and less than 80%) | –
3 | CCC(C)C(CNC(=O)c1cc2ccccc2o1)NC(=O)OCC(F)(F)F (stereo not shown) [compound 32] | A (80% or more) | –
4 | CC(C)C(CNC(=O)c1cc2ccccc2o1)NC(=O)OCC(F)(F)F (stereo not shown) [compound 28] | A (80% or more) | A (80% or more)
5 | N-(chloromethyloxycarbonyl)-N′-(4-methylbenzoyl)-3-methyl-1,2-butanediamine [Compound No. 1] | – | A (80% or more)
6 | Cc1ccc(C(=O)NCC(NC(=O)OCC(F)(F)F)C2CCCC2)cc1 (stereo not shown) [compound 36] | A (80% or more) | –
7 | CCC(C)C(CNC(=O)c1ccc(C)cc1)NC(=O)OCC(F)(F)F (stereo not shown) [compound 25] | A (80% or more) | A (80% or more)
8 | Cc1ccc(C(=O)NCC(NC(=O)OC(C)C(F)(F)F)C(C)C)cc1 (stereo not shown) [compound 30] | A (80% or more) | A (80% or more)
9 | Cc1ccc(C(=O)NCC(NC(=O)OCCCCl)C(C)C)cc1 (stereo not shown) [compound 10] | A (80% or more) | –
10 | N-(2,2,2-trichloroethyloxycarbonyl)-N′-(4-methylbenzoyl)-3-methyl-1,2-butanediamine [Compound No. 7] | A (80% or more) | –
11 | Cc1ccc(C(=O)NCC(NC(=O)OCCF)C(C)C)cc1 (stereo not shown) [compound 2] | A (80% or more) | A (80% or more)
12 | CC(C)C(CNC(=O)c1nc2ccc(F)cc2s1)NC(=O)OCC(F)(F)F (stereo not shown) [compound 37] | A (80% or more) | –
13 | CSCC(C)OC(=O)NC(CNC(=O)c1ccc(C)cc1)C(C)C (stereo not shown) [Formula (8), reference compound] | C (less than 50%) | C (less than 50%)
14 | Cc1ccc(C(=O)NCC(NC(=O)OCCI)C(C)C)cc1 (stereo not shown) [compound 5] | A (80% or more) | –
15 | N-(2,2,2-trifluoroethyloxycarbonyl)-N′-(4-methylbenzoyl)-3-methyl-1,2-butanediamine [Compound No. 6] | A (80% or more) | A (80% or more)
16 | Cc1ccc(C(=O)NCC(NC(=O)OC(CBr)CBr)C(C)C)cc1 (stereo not shown) [compound 11] | B (50% or more and less than 80%) | –
17 | Cc1ccc(C(=O)NCC(NC(=O)OCCBr)C(C)C)cc1 (stereo not shown) [compound 4] | A (80% or more) | –
18 | Cc1ccc(C(=O)NCC(NC(=O)OCC(F)(F)F)C(C)(C)C)cc1 (stereo not shown) [compound 24] | A (80% or more) | A (80% or more)
19 | Cc1ccc(C(=O)NCC(NC(=O)OC(CF)CF)C(C)C)cc1 (stereo not shown) [compound 9] | A (80% or more) | –
20 | Cc1ccc(C(=O)NCC(NC(=O)OCC(F)(F)C(F)(F)C(F)(F)F)C(C)C)cc1 (stereo not shown) [compound 13] | A (80% or more) | –
21 | CC(C)C(CNC(=O)c1nc2ccccc2s1)NC(=O)OCC(F)(F)F (stereo not shown) [compound 38] | A (80% or more) | –
22 | Cc1ccc(C(=O)NCC(NC(=O)OC2CCCCC2F)C(C)C)cc1 (stereo not shown) [compound 16] | A (80% or more) | –
23 | CC(C)(C)C(CNC(=O)c1cc2ccccc2o1)NC(=O)OCC(F)(F)F (stereo not shown) [compound 31] | A (80% or more) | A (80% or more)
24 | CC(C)C(CNC(=O)c1cc2ccccc2s1)NC(=O)OCC(F)(F)F (stereo not shown) [compound 34] | A (80% or more) | –
25 | Cc1ccc(C(=O)NCC(NC(=O)Oc2ccc3ccccc3c2)C(C)C)cc1 (stereo not shown) [Formula (7), reference compound] | C (less than 50%) | C (less than 50%)
26 | Cc1ccc(C(=O)NC(CNC(=O)OC(C(F)(F)F)C(F)(F)F)C(C)C)cc1 (stereo not shown) [Compound No. 8, N-(1,1,1,3,3,3-hexafluoro-2-propyloxycarbonyl)-N′-(4-methylbenzoyl)-3-methyl-1,2-butanediamine] | A (80% or more) | –
27 | Cc1ccc(C(=O)NC(CNC(=O)OC2CCCCC2Cl)C(C)C)cc1 (stereo not shown) [Compound No. 17, N-(2-chlorocyclohexyloxycarbonyl)-N′-(4-methylbenzoyl)-3-methyl-1,2-butanediamine] | A (80% or more) | –
28 | Cc1ccc(C(=O)NCC(NC(=O)OCCCl)C(C)C)cc1 (stereo not shown) [compound 3] | A (80% or more) | –
29 | CCC(C)C(CNC(=O)c1nc2ccccc2s1)NC(=O)OCC(F)(F)F (stereo not shown) [compound 33] | A (80% or more) | –
30 | C=C(Cl)COC(=O)NC(CNC(=O)c1ccc(C)cc1)C(C)C (stereo not shown) [compound 15] | A (80% or more) | A (80% or more)
